In a compilation of properties of binary mixtures (doi:10.1007/s10973-014-3978-x):

Assay: xn = mol fraction of the nth substance listed
Conditions: 101 kPa

O=C1CCCC1 + CC[n+]1ccn(C)c1.F[B-](F)(F)F
speed of sound [m/s]
Conditions | 293.15 K | 298.15 K | 303.15 K | 308.15 K
x1 = 0.0877 | 1643.2 | 1628.4 | 1615.4 | –
x1 = 0.1164 | 1644.4 | 1629.3 | 1615.2 | 1599.6
x1 = 0.1767 | 1642 | 1625.9 | 1611.6 | 1595.8
x1 = 0.2302 | 1633.9 | 1619.2 | – | 1588.2
x1 = 0.2879 | 1622.5 | 1606.5 | – | 1576.9
x1 = 0.3434 | – | 1592.4 | 1577.1 | 1562.1
x1 = 0.3887 | 1593.6 | 1578.2 | – | 1548
x1 = 0.478 | 1562.8 | – | 1530.1 | –
x1 = 0.5114 | – | 1533.8 | 1517.1 | 1502.2
x1 = 0.5878 | 1522.6 | 1504.6 | 1486.7 | 1470.6
x1 = 0.6115 | 1513.9 | 1495.8 | 1477.3 | 1460.7
x1 = 0.6411 | 1503.2 | 1485 | 1465.7 | 1448.7
x1 = 0.6834 | – | 1469.2 | 1449.6 | 1431.7
x1 = 0.7649 | 1462.6 | 1441.6 | 1421.2 | 1402.3
x1 = 0.7867 | 1456.3 | 1435.4 | 1414.3 | 1394.6
x1 = 0.8157 | – | 1427 | 1405.9 | 1385.8
x1 = 0.8755 | – | 1412.3 | – | 1370.4
x1 = 0.9061 | 1427.6 | 1406 | 1384.4 | 1363.9

CC[n+]1ccn(C)c1.F[B-](F)(F)F + O=C1CCCCC1
speed of sound [m/s]
Conditions | 293.15 K | 298.15 K | 303.15 K | 308.15 K
x2 = 0.0789 | 1623.5 | 1613.7 | 1602.6 | –
x2 = 0.1407 | 1616.1 | 1607.6 | 1595.3 | 1581
x2 = 0.1861 | 1609.9 | – | 1587.8 | 1573.9
x2 = 0.2271 | 1603 | 1593.7 | 1580.5 | 1565.6
x2 = 0.2765 | – | – | 1570.4 | –
x2 = 0.3069 | 1588.5 | – | 1563.6 | –
x2 = 0.3898 | 1571.3 | 1560.2 | 1543.8 | 1527.9
x2 = 0.4269 | 1562.9 | – | 1534.4 | 1518.2
x2 = 0.489 | 1548.9 | – | 1518.4 | 1501.3
x2 = 0.5007 | 1545.9 | 1532.4 | 1515 | 1498.2
x2 = 0.5432 | 1535.6 | – | 1503.3 | 1486.5
x2 = 0.6302 | 1514.1 | 1499.3 | 1480.2 | 1462.4
x2 = 0.6848 | – | 1484.9 | 1465.9 | 1447.8
x2 = 0.7559 | 1483.3 | 1467.5 | – | 1428.7
x2 = 0.779 | 1477.4 | 1461.4 | 1441.7 | 1423.1
x2 = 0.8235 | 1467.2 | 1450.9 | 1431.5 | 1412.3
x2 = 0.8675 | 1457 | 1440.8 | – | –
x2 = 0.9001 | 1450.6 | 1433.9 | 1414.6 | 1395
